Source: patent US20240294508A1, “RIP1 MODULATORS INCLUDING AZETIDINE CYCLIC UREAS, PREPARATIONS, AND USES THEREOF” (SIRONAX LTD., priority 2021, published 2024)

System: HT-29 cells
Assay: HT29 cells 0FBS assay in vitro: TNF-α/SMAC mimetic/zVAD-FMK induced necroptosis, CellTiter-Glo cell viability (RIP1 inhibitory activity)
Format: cell-based
Details: Homo sapiens, FBS free medium, TNF-α (10 ng/ml) + SMAC mimetic (6 uM) + zVAD-FMK (10 μM), 20 hours, geometric mean EC50
Procedure, shortened: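 Luminescent ATP read-out (CellTiter-Glo) gave viability of HT-29 cells after 20 h at 37° C in serum-free medium containing compound and a necroptosis cocktail of 10 ng/ml TNF-α, 6 uM SMAC mimetic and 10 μM zVAD-FMK. EC50s are geometric means of 10-point curves run in duplicate.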

Compound	EC50
CNC(=O)c1c(C)nn(-c2cc(OC3CN(C(=O)N4N=CC[C@H]4c4cc(F)cc(C#N)c4)C3)c(F)cn2)c1C [Compound 80, (S)-1-(4-((1-(5-(3-cyano-5-fluorophenyl)-4,5-dihydro-1H-pyrazole-1-carbonyl)azetidin-3-yl)oxy)-5-fluoropyridin-2-yl)-N,3,5-trimethyl-1H-pyrazole-4-carboxamide]	0.1 to 100 nM
CNC(=O)c1c(C)nn(-c2cc(OC3CN(C(=O)N4N=CC[C@H]4c4cncc(C#N)c4)C3)c(F)cn2)c1C [Compound 81, (S)-1-(4-((1-(5-(5-cyanopyridin-3-yl)-4,5-dihydro-1H-pyrazole-1-carbonyl)azetidin-3-yl)oxy)-5-fluoropyridin-2-yl)-N,3,5-trimethyl-1H-pyrazole-4-carboxamide]	100 to 1000 nM
Cc1nn(-c2cc(OC3CN(C(=O)N4N=CC[C@H]4c4cccc(F)c4)C3)c(F)cn2)c(C)c1C(=O)O [Compound 82, (S)-1-(5-fluoro-4-((1-(5-(3-fluorophenyl)-4,5-dihydro-1H-pyrazole-1-carbonyl)azetidin-3-yl)oxy)pyridin-2-yl)-3,5-dimethyl-1H-pyrazole-4-carb oxylic acid]	0.1 to 100 nM
Cc1nn(-c2cc(OC3CN(C(=O)N4N=CC[C@H]4c4cc(F)cc(C#N)c4)C3)c(F)cn2)c(C)c1C(=O)O [Compound 83, (S)-1-(4-((1-(5-(3-cyano-5-fluorophenyl)-4,5-dihydro-1H-pyrazole-1-carbonyl)azetidin-3-yl)oxy)-5-fluoropyridin-2-yl)-3,5-dimethyl-1H-pyrazole-4-carboxylic acid]	0.1 to 100 nM
Cc1nn(-c2cc(OC3CN(C(=O)N4N=CC[C@H]4c4ccccc4)C3)c(F)cn2)c(C)c1C(=O)O [Compound 84, (S)-1-(5-fluoro-4-((1-(5-phenyl-4,5-dihydro-1H-pyrazole-1-carbonyl)azetidin-3-yl)oxy)pyridin-2-yl)-3,5-dimethyl-1H-pyrazole-4-carboxylic acid]	0.1 to 100 nM
Cc1nn(-c2cc(OC3CN(C(=O)N4N=CC[C@H]4c4cc(F)cc(C#N)c4)C3)c(F)cn2)c(C)c1C(=O)NC1COC1 [Compound 85, (S)-1-(4-((1-(5-(3-cyano-5-fluorophenyl)-4,5-dihydro-1H-pyrazole-1-carbonyl)azetidin-3-yl)oxy)-5-fluoropyridin-2-yl)-3,5-dimethyl-N-(oxetan-3-yl)-1H-pyrazole-4-carboxamide]	0.1 to 100 nM
Cc1nn(-c2cc(OC3CN(C(=O)N4N=CC[C@H]4c4cc(F)cc(C#N)c4)C3)c(F)cn2)c(C)c1C(=O)NC1CC1 [Compound 86, (S)-1-(4-((1-(5-(3-cyano-5-fluorophenyl)-4,5-dihydro-1H-pyrazole-1-carbonyl)azetidin-3-yl)oxy)-5-fluoropyridin-2-yl)-N-cyclopropyl-3,5-dimethyl-1H-pyrazole-4-carboxamide]	0.1 to 100 nM
CCNC(=O)c1c(C)nn(-c2cc(OC3CN(C(=O)N4N=CC[C@H]4c4cc(F)cc(C#N)c4)C3)c(F)cn2)c1C [Compound 87, (S)-1-(4-((1-(5-(3-cyano-5-fluorophenyl)-4,5-dihydro-1H-pyrazole-1-carbonyl)azetidin-3-yl)oxy)-5-fluoropyridin-2-yl)-N-ethyl-3,5-dimethyl-1H-pyrazole-4-carboxamide]	0.1 to 100 nM
Cc1ncc(C2CC=NN2C(=O)N2CC(Oc3cc(-c4c(C)cnn4C)ncc3F)C2)s1 (stereo not drawn) [Compound 88, (3-((2-(1,4-dimethyl-1H-pyrazol-5-yl)-5-fluoropyridin-4-yl)oxy)azetidin-1-yl)(5-(2-methylthiazol-5-yl)-4,5-dihydro-1H-pyrazol-1-yl)methanone]	0.1 to 100 nM
Cc1noc(C)c1-c1cc(OC2CN(C(=O)N3N=CC[C@H]3c3cc(F)cc(C#N)c3)C2)c(F)cn1 [Compound 89, (S)-3-(1-(3-((2-(3,5-dimethylisoxazol-4-yl)-5-fluoropyridin-4-yl)oxy)azetidine-1-carbonyl)-4,5-dihydro-1H-pyrazol-5-yl)-5-fluorobenzonitrile]	0.1 to 100 nM
Cc1nc(C2CC=NN2C(=O)N2CC(Oc3cc(-c4c(C)cnn4C)ncc3F)C2)co1 (stereo not drawn) [Compound 90, (3-((2-(1,4-dimethyl-1H-pyrazol-5-yl)-5-fluoropyridin-4-yl)oxy)azetidin-1-yl)(5-(2-methyloxazol-4-yl)-4,5-dihydro-1H-pyrazol-1-yl)methanone]	0.1 to 100 nM
Cc1cnn(C)c1-c1cc(OC2CN(C(=O)N3N=CCC3c3cncs3)C2)c(F)cn1 (stereo not drawn) [Compound 91, (3-((2-(1,4-dimethyl-1H-pyrazol-5-yl)-5-fluoropyridin-4-yl)oxy)azetidin-1-yl)(5-(thiazol-5-yl)-4,5-dihydro-1H-pyrazol-1-yl)methanone]	0.1 to 100 nM
Cc1cnn(C)c1-c1cc(OC2CN(C(=O)N3N=CCC3c3nccs3)C2)c(F)cn1 (stereo not drawn) [Compound 92, (3-((2-(1,4-dimethyl-1H-pyrazol-5-yl)-5-fluoropyridin-4-yl)oxy)azetidin-1-yl)(5-(thiazol-2-yl)-4,5-dihydro-1H-pyrazol-1-yl)methanone]	0.1 to 100 nM
Cc1cnn(C)c1-c1cc(OC2CN(C(=O)N3N=CCC3c3ncccc3Cl)C2)c(F)cn1 (stereo not drawn) [Compound 93, (5-(3-chloropyridin-2-yl)-4,5-dihydro-1H-pyrazol-1-yl)(3-((2-(1,4-dimethyl-1H-pyrazol-5-yl)-5-fluoropyridin-4-yl)oxy)azetidin-1-yl)methanone]	0.1 to 100 nM
Cc1cnc(C2CC=NN2C(=O)N2CC(Oc3cc(-c4c(C)cnn4C)ncc3F)C2)s1 (stereo not drawn) [Compound 94, (3-((2-(1,4-dimethyl-1H-pyrazol-5-yl)-5-fluoropyridin-4-yl)oxy)azetidin-1-yl)(5-(5-methylthiazol-2-yl)-4,5-dihydro-1H-pyrazol-1-yl)methanone]	0.1 to 100 nM
Cc1cnn(C)c1-c1cc(OC2CN(C(=O)N3N=CCC3c3cscn3)C2)c(F)cn1 (stereo not drawn) [Compound 95, (3-((2-(1,4-dimethyl-1H-pyrazol-5-yl)-5-fluoropyridin-4-yl)oxy)azetidin-1-yl)(5-(thiazol-4-yl)-4,5-dihydro-1H-pyrazol-1-yl)methanone]	0.1 to 100 nM
Cc1nc(C2CC=NN2C(=O)N2CC(Oc3cc(-c4c(C)cnn4C)ncc3F)C2)cs1 (stereo not drawn) [Compound 96, (3-((2-(1,4-dimethyl-1H-pyrazol-5-yl)-5-fluoropyridin-4-yl)oxy)azetidin-1-yl)(5-(2-methylthiazol-4-yl)-4,5-dihydro-1H-pyrazol-1-yl)methanone]	0.1 to 100 nM
Cc1csc(C2CC=NN2C(=O)N2CC(Oc3cc(-c4c(C)cnn4C)ncc3F)C2)n1 (stereo not drawn) [Compound 97, (3-((2-(1,4-dimethyl-1H-pyrazol-5-yl)-5-fluoropyridin-4-yl)oxy)azetidin-1-yl)(5-(4-methylthiazol-2-yl)-4,5-dihydro-1H-pyrazol-1-yl)methanone]	100 to 1000 nM
Cc1nn(-c2cc(OC3CN(C(=O)N4N=CC[C@@H]4c4cccc(F)c4)C3)c(F)cn2)c(C)c1C(N)=O [Compound 98, (R)-1-(5-fluoro-4-((1-(5-(3-fluorophenyl)-4,5-dihydro-1H-pyrazole-1-carbonyl)azetidin-3-yl)oxy)pyridin-2-yl)-3,5-dimethyl-1H-pyrazole-4-carb oxamide]	1000 to 10000 nM
Cc1cnn(C)c1-c1cc(OC2CN(C(=O)N3N=CCC3c3cccnc3)C2)c(F)cn1 (stereo not drawn) [Compound 99, (3-((2-(1,4-dimethyl-1H-pyrazol-5-yl)-5-fluoropyridin-4-yl)oxy)azetidin-1-yl)(5-(pyridin-3-yl)-4,5-dihydro-1H-pyrazol-1-yl)methanone]	0.1 to 100 nM
Cc1cnn(C)c1-c1cc(OC2CN(C(=O)N3N=CCC3c3ccccn3)C2)c(F)cn1 (stereo not drawn) [Compound 100, (3-((2-(1,4-dimethyl-1H-pyrazol-5-yl)-5-fluoropyridin-4-yl)oxy)azetidin-1-yl)(5-(pyridin-2-yl)-4,5-dihydro-1H-pyrazol-1-yl)methanone]	0.1 to 100 nM
Cc1cncc(C2CC=NN2C(=O)N2CC(Oc3cc(-c4c(C)cnn4C)ncc3F)C2)c1 (stereo not drawn) [Compound 101, (3-((2-(1,4-dimethyl-1H-pyrazol-5-yl)-5-fluoropyridin-4-yl)oxy)azetidin-1-yl)(5-(5-methylpyridin-3-yl)-4,5-dihydro-1H-pyrazol-1-yl)methanone]	0.1 to 100 nM
Cc1nn(-c2cc(OC3CN(C(=O)N4N=CC[C@H]4c4cc(F)cc(F)c4F)C3)c(F)cn2)c(C)c1C(N)=O [Compound 102, (S)-1-(5-fluoro-4-((1-(5-(2,3,5-trifluorophenyl)-4,5-dihydro-1H-pyrazole-1-carbonyl)azetidin-3-yl)oxy)pyridin-2-yl)-3,5-dimethyl-1H-pyrazole-4-carboxamide]	0.1 to 100 nM
Cc1nn(-c2cc(OC3CN(C(=O)N4N=CC[C@@H]4c4cc(F)cc(F)c4F)C3)c(F)cn2)c(C)c1C(N)=O [Compound 103, (R)-1-(5-fluoro-4-((1-(5-(2,3,5-trifluorophenyl)-4,5-dihydro-1H-pyrazole-1-carbonyl)azetidin-3-yl)oxy)pyridin-2-yl)-3,5-dimethyl-1H-pyrazole-4-carboxamide]	1000 to 10000 nM
Cc1nn(-c2cc(OC3CN(C(=O)N4N=CC[C@H]4c4cc(F)cc(F)c4F)C3)c(F)cn2)c(C)c1C(=O)O [Compound 104, (S)-1-(5-fluoro-4-((1-(5-(2,3,5-trifluorophenyl)-4,5-dihydro-1H-pyrazole-1-carbonyl)azetidin-3-yl)oxy)pyridin-2-yl)-3,5-dimethyl-1H-pyrazole-4-carboxylic acid]	0.1 to 100 nM
Cc1nn(-c2cc(OC3CN(C(=O)N4N=CC[C@@H]4c4cc(F)cc(F)c4F)C3)c(F)cn2)c(C)c1C(=O)O [Compound 105, (R)-1-(5-fluoro-4-((1-(5-(2,3,5-trifluorophenyl)-4,5-dihydro-1H-pyrazole-1-carbonyl)azetidin-3-yl)oxy)pyridin-2-yl)-3,5-dimethyl-1H-pyrazole-4-carboxylic acid]	1000 to 10000 nM
Cc1ncc(C2CC=NN2C(=O)N2CC(Oc3nc(-c4c(C)cnn4C)ccc3F)C2)s1 (stereo not drawn) [Compound 106, (3-((6-(1,4-dimethyl-1H-pyrazol-5-yl)-3-fluoropyridin-2-yl)oxy)azetidin-1-yl)(5-(2-methylthiazol-5-yl)-4,5-dihydro-1H-pyrazol-1-yl)methanone]	0.1 to 100 nM
